Patent US9145381B2, “Derivative of [(3-hydroxy-4-pyron-2-yl)-methyl]-amine and use thereof as anti-neoplastic drugs” (Universita' Degli Studi Di Urbino, priority 2008, dated 2015)

How the values were obtained:
Format in all cases: cell-based
[1] = test system: HeLa cells (uterine cervix cancer); test: Antiproliferative activity, Trypan blue viability; conditions: 72 hours, treatments repeated every 24 hours, maximum over the lines
Experimental: (§1) FIGS. 3 and 4 show a diagram with the inhibiting concentrations (IC50) of L1 (FIG. 3) and L9 (FIG. 4) in different tumour cell lines. Cells in an exponential growth phase were treated for 72 hours with L1 and L9 and then harvested and stained with Trypan blue in order to determine viability. The values of IC50 have been computed for each compound as the concentration that can determine a 50% reduction in viable cells with respect to a non-treated control.
(§2) In order to evaluate the ability of these compounds to inhibit the proliferation of tumour cells in vitro, eight cell lines were selected, four deriving from haematopoietic tumours and four deriving from solid tumours. The tested hematopoietic lines comprise three myeloid tumour cell lines (U937—acute monocytic leukaemia, NB4—acute promyelocytic leukaemia, HL-60—acute myeloid leukaemia) and a lymphoid tumour cell line (JURKAT—T cell leukaemia), while cell lines deriving from multiform glioblastoma (U-373MG), from uterine cervix cancer (HeLa), from malignant pleural mesothelioma (H-28) and from rhabdomyosarcoma (RH-4) have been used as lines representative of solid tumours. Each cell line has been grown in the appropriate growth medium at 37° C. (RPMI 1640 for the hematopoietic lines and DMEM for the adhering cells deriving from solid tumours—Cambrex, Walkersville, Md., USA) added with 10% FBS, 1% glutamine, 100 IU/ml penicillin, 100 μg/ml streptomycin in a highly humidified atmosphere at 5% CO2. The hematopoietic populations were diluted with preheated growth medium at 37° C. at a concentration of 1×10^5 cells/ml and aliquots of 2 ml were aliquoted in each single well of 6-well plates. The adhering cells were trypsinized, diluted with preheated growth medium at 37° C. and 0.5×10^5 cells were aliquoted in each single well of 6-well plates. The cells in an exponential growth phase were treated with different concentrations of L1 or L9. Both compounds were diluted in distilled water and the treatments were repeated every 24 hours. 72 hours after starting the treatments, cell viability was evaluated by means of Trypan blue staining and the inhibiting concentration (IC50) was computed for each cell line as the concentration allowing to reduce by 50% the number of viable cells, with respect to a non-treated control.

[2] = test system: RH-4 cells (rhabdomyosarcoma); test: Antiproliferative activity, Trypan blue viability; conditions: 72 hours, treatments repeated every 24 hours, minimum over the lines
Experimental: as §1, §2

[3] = test system: cell lines deriving from solid tumours (U-373MG, HeLa, H-28, RH-4); test: Antiproliferative activity, Trypan blue viability; conditions: cells deriving from solid tumours, 72 hours
Experimental: as §1, §2

[4] = test system: hematopoietic cells (U937, NB4, HL-60, JURKAT); test: Antiproliferative activity, Trypan blue viability; conditions: 72 hours
Experimental: as §1, §2

tumour cell lines = test: Cell cycle and apoptosis, propidium iodide cytofluorimetric analysis; conditions: 72 hour treatment; for interruption of the cell cycle: tested tumour cell lines in general, different concentrations
Experimental: (§3) FIG. 5: Apoptosis induced by L1 after treatment for 72 hours at a concentration of 50 μM. FIGS. 6-13: Effects of L1 on the percentages of the different phases of the cell cycle after a 72 hour treatment at different concentrations. FIG. 14: Apoptosis induced by L9 after a 72 hour treatment at a concentration of 5 μM. FIGS. 15-22: Effects of L9 on the percentages of the different phases of the cell cycle after a 72 hour treatment at different concentrations.
(§4) The effects of L1 and L9 on the progression of the cell cycle and on its hypothetical ability to induce the apoptotic process were evaluated by cytofluorimetric analysis by means of propidium iodide staining of all of the previously tested cell lines. Cell treated with different concentrations of the two compounds, as previously disclosed, have been harvested and washed with cold phosphate buffer (1×PBS). The cells were resuspended in cold 70% ethanol and fixed at +4° C. for 24 hours. All of the samples were then centrifuged at 1300 rpm at +4° C. for 3 minutes and then resuspended in a solution containing propidium iodide (1×PBS; 0.1% Triton X-100, 0.1% sodium citrate, 250 μg/ml RNasi A, 50 μg/ml propidium iodide) and, after 24 hours of incubation at +4° C., a minimum of 1×10^4 events were acquired at the BD FACScan cytofluorimeter (BD Biosciences, San Jose, Calif., USA). The acquisitions were analysed by a FlowJo 5.7.2 software (Tree Star, Inc., Ashland, Oreg., USA) in order to determine the percentage of cells in different phases of the cell cycle and displaying hypoploid conditions (Apoptotic cells). The induction of programmed cell death was computed as the difference between the percentage of hypodiploid cells in treated and non-treated samples.

HL-60 cells = test: Cell cycle, propidium iodide cytofluorimetric analysis; conditions: HL-60 (printed H1-60 / JL-60), 72 hour treatment
Experimental: as §3, §4

HeLa cells = test: as above; conditions: 72 hour treatment
Experimental: as §3, §4

JURKAT cells = test: as above; conditions: 72 hour treatment
Experimental: as §3, §4

RH-4 cells = test: as above; conditions: RH-4, 72 hour treatment
Experimental: as §3, §4

U937 cells = test: Fragmentation of genomic DNA, agarose gel electrophoresis; conditions: U937, 72 hours; L1 25, 50, 100 μM; L9 2.5, 5, 10 μM
Experimental: The cells were treated for 72 hours with L1 and L9 at the concentrations shown in the Figure, the genomic DNA was then extracted, separated on a 2% agarose gel and stained with ethidium bromide.
The induction of apoptosis by compounds L1 and L9 has further been confirmed with the analysis of the fragmentation of the genomic DNA carried out by electrophoresis on an agarose gel. U937 cells treated with L1 (non-treated as a control) at concentrations of 25, 50, 100 μM and L9 at concentrations of 2.5, 5, 10 μM for 72 hours were harvested (about 2×10^6 cells), washed with cold 1×PBS and incubated in 2 ml of 1×TBS, 0.5% Tween20, 1 mM EDTA for 30 minutes at +4° C. After being centrifuged at 1200 rpm, for 5 minutes at +4° C., the cells were incubated in 0.5 ml of a solution at 0.1% SDS for 30 minutes at room temperature. The genomic DNA was then extracted by using a QIAquick Gel Extraction Kit (Qiagen, Hilden, Germany), electrophoretically separated by means of a 2% agarose gel and stained with ethidium bromide.

[5] = test system: all tested tumour cell lines (U937, NB4, HL-60, JURKAT, U-373MG, HeLa, H-28, RH-4); test: Antiproliferative activity, Trypan blue viability; conditions: range over the tested cell lines, 72 hours, read-out: IC50 values in the different tested cell lines
Experimental: In order to evaluate the ability of these compounds to inhibit the proliferation of tumour cells in vitro, eight cell lines were selected, four deriving from haematopoietic tumours and four deriving from solid tumours. […] Each cell line has been grown in the appropriate growth medium at 37° C. […] The hematopoietic populations were diluted with preheated growth medium at 37° C. at a concentration of 1×10^5 cells/ml and aliquots of 2 ml were aliquoted in each single well of 6-well plates. The adhering cells were trypsinized, diluted with preheated growth medium at 37° C. and 0.5×10^5 cells were aliquoted in each single well of 6-well plates. […] Both compounds were diluted in distilled water and the treatments were repeated every 24 hours.

H-28 cells = test: Cell cycle, propidium iodide cytofluorimetric analysis; conditions: H-28, 72 hour treatment
Experimental: as §3, §4

IC50 [1]	IC50 [2]	IC50 [3]	IC50 [4]	IC50 [5]	Structure (SMILES)	interruption of the cell cycle (tumour cell lines)	induction of apoptosis (hypodiploid cells) (tumour cell lines; tumour cells, propidium iodide)	block of the cell cycle (HL-60 cells)	block of the cell cycle (HeLa cells)	block of the cell cycle (JURKAT cells)	block of the cell cycle (RH-4 cells)	fragmentation of genomic DNA (U937 cells)	block of the cell cycle (H-28 cells)
30.5 µM	4.49 µM	22 µM	10.4 µM		CN(CCN(C)Cc1occc(=O)c1O)Cc1occc(=O)c1O [Compound L1, N,N′-bis[(3-hydroxy-4-pyron-2-yl)methyl]-N,N′-dimethylethylendiamine]	interrupt the cell cycle of tumour cells in phase S and G2 in a concentration-dependent manner	induce apoptosis	mainly blocked in phase S	mainly blocked in phase S	severe block in G2	severe block in G2	concentration-dependent internucleosomic fragmentation	
				1.45 to 2.31 µM	CN1CCN(Cc2occc(=O)c2O)CCN(C)CCN(Cc2occc(=O)c2O)CC1 [Compound L9, 4(N),10(N)-bis[(3-hydroxy-4-pyron-2-yl)methyl]-1,7-dimethyl-1,4,7,10-tetraazacyclododecane]	mainly blocked in phase G2		moderate block in phase G1	stop especially in phase S	stop especially in phase S		concentration-dependent internucleosomic fragmentation	moderate block in phase G1
